One may read the IC50 as the midpoint of a concentration-inhibition curve. Read a high IC50 as lower potency.

In patent US11104674B2 (Hoffmann-La Roche Inc., priority 2016, dated 2021) one finds IC50 data, which are given here for 31 compounds.

For the experiment, the system named is HBsAg. As to the kind of experiment: HBsAg assay (chemiluminescence immunoassay of secreted HBsAg). The class given is cell-based, HBV. The following applies: Hepatitis B virus, HepG2.2.15, HBsAg secretion, HepG2.2.15 cells, CLIA of culture supernatant. The gist of the method:
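HepG2.2.15 cells, in duplicate, treated with three-fold serial compound dilutions (1% DMSO final); secreted HBsAg in supernatant quantified by chemiluminescence immunoassay; IC50 is the concentration reducing HBsAg secretion by 50% versus the DMSO control.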
The compound `COC1CCN(c2cc(N3CCc4nc(-c5ncccn5)ncc4C3C)cc(F)n2)C1` (stereo not shown) [Example 108, 6-[2-Fluoro-6-(3-methoxypyrrolidin-1-yl)-4-pyridyl]-5-methyl-2-pyrimidin-2-yl-7,8-dihydro-5H-pyrido[4,3-d]pyrimidine] came in with a half-maximal inhibitory concentration (IC50) of 13 nM.
The same measure for `CC1c2cnc(-c3ncccn3)nc2CCN1c1cc(F)cc(N2CCC2)n1` (stereo not shown) [Example 109, 6-[6-(azetidin-1-yl)-4-fluoro-2-pyridyl]-5-methyl-2-pyrimidin-2-yl-7,8-dihydro-5H-pyrido[4,3-d]pyrimidine]: 21 nM; for `CC1c2cnc(-c3ncccn3)nc2CCN1c1cc(N2CCC2)cc(F)n1` (stereo not shown) [Example 110, 6-[4-(azetidin-1-yl)-6-fluoro-2-pyridyl]-5-methyl-2-pyrimidin-2-yl-7,8-dihydro-5H-pyrido[4,3-d]pyrimidine]: 8 nM; for `COC1CN(c2cc(F)cc(N3CCc4nc(-c5ncccn5)ncc4C3C)n2)C1` (stereo not shown) [Example 111, 6-[4-fluoro-6-(3-methoxyazetidin-1-yl)-2-pyridyl]-5-methyl-2-pyrimidin-2-yl-7,8-dihydro-5H-pyrido[4,3-d]pyrimidine]: 26 nM.
The figure for `CC1c2cnc(-c3ncccn3)nc2CCN1c1cc(N2CCCC2=O)cc(F)n1` (stereo not shown) [Example 113, 1-[2-Fluoro-6-(5-methyl-2-pyrimidin-2-yl-7,8-dihydro-5H-pyrido[4,3-d]pyrimidin-6-yl)-4-pyridyl]pyrrolidin-2-one] is 4 nM; for `CC1c2cnc(-c3ncccn3)nc2CCN1c1cc(N2CC(C)(C)OC2=O)cc(F)n1` (stereo not shown) [Example 114, 3-[2-Fluoro-6-(5-methyl-2-pyrimidin-2-yl-7,8-dihydro-5H-pyrido[4,3-d]pyrimidin-6-yl)-4-pyridyl]-5,5-dimethyl-oxazolidin-2-one] it is 8 nM.
The same measure for `CC1C(=O)NCCN1c1cc(F)cc(N2CCc3nc(-c4ncccn4)ncc3C2C)n1` (stereo not shown) [Example 116, 4-[4-fluoro-6-(5-methyl-2-pyrimidin-2-yl-7,8-dihydro-5H-pyrido[4,3-d]pyrimidin-6-yl)-2-pyridyl]-3-methyl-piperazin-2-one]: 103 nM; for `CC1C(=O)NCCN1c1cc(F)nc(N2CCc3nc(-c4ncccn4)ncc3C2C)c1` (stereo not shown) [Example 117, 4-[2-fluoro-6-(5-methyl-2-pyrimidin-2-yl-7,8-dihydro-5H-pyrido[4,3-d]pyrimidin-6-yl)-4-pyridyl]-3-methyl-piperazin-2-one]: 106 nM.
In turn, `CC1c2cnc(-c3ncccn3)nc2CCN1c1cc(F)cc(N2CC(NS(C)(=O)=O)C2)n1` (stereo not shown) [Example 118, N-[1-[4-fluoro-6-(5-methyl-2-pyrimidin-2-yl-7,8-dihydro-5H-pyrido[4,3-d]pyrimidin-6-yl)-2-pyridyl]azetidin-3-yl]methanesulfonamide] yielded an IC50 of 94 nM.
On to `CC1c2cnc(-c3ncccn3)nc2CCN1c1cc(N2CC(NS(C)(=O)=O)C2)cc(F)n1` (stereo not shown) [Example 119, N-[1-[2-fluoro-6-(5-methyl-2-pyrimidin-2-yl-7,8-dihydro-5H-pyrido[4,3-d]pyrimidin-6-yl)-4-pyridyl]azetidin-3-yl]methanesulfonamide], for which the IC50 was 57 nM.
The same measure for `CC1c2cnc(-c3ncccn3)nc2CCN1c1cc(F)cc(NC2CNC2)n1` (stereo not shown) [Example 120, N-(azetidin-3-yl)-4-fluoro-6-(5-methyl-2-pyrimidin-2-yl-7,8-dihydro-5H-pyrido[4,3-d]pyrimidin-6-yl)pyridin-2-amine]: 33300 nM.
The same measure for `CC1c2cnc(-c3ncccn3)nc2CCN1c1cc(NC2CNC2)cc(F)n1` (stereo not shown) [Example 121, N-(azetidin-3-yl)-2-fluoro-6-(5-methyl-2-pyrimidin-2-yl-7,8-dihydro-5H-pyrido[4,3-d]pyrimidin-6-yl)pyridin-4-amine]: 496 nM; for `CC1c2cnc(-c3ncccn3)nc2CCN1c1cc(F)cc(N2CC(F)C2)n1` (stereo not shown) [Example 122, 6-[4-fluoro-6-(3-fluoroazetidin-1-yl)-2-pyridyl]-5-methyl-2-pyrimidin-2-yl-7,8-dihydro-5H-pyrido[4,3-d]pyrimidine]: 28 nM; for `CC1c2cnc(-c3ncccn3)nc2CCN1c1cc(N2CC(O)C2)cc(F)n1` (stereo not shown) [Example 124, 1-[2-Fluoro-6-(5-methyl-2-pyrimidin-2-yl-7,8-dihydro-5H-pyrido[4,3-d]pyrimidin-6-yl)-4-pyridyl]azetidin-3-ol]: 33 nM.
The figure for `CC1c2cnc(-c3ncccn3)nc2CCN1c1cc(F)cc(N2CC(F)(F)C2)n1` (stereo not shown) [Example 125, 6-[6-(3,3-difluoroazetidin-1-yl)-4-fluoro-2-pyridyl]-5-methyl-2-pyrimidin-2-yl-7,8-dihydro-5H-pyrido[4,3-d]pyrimidine] is 38 nM; for `CC1c2cnc(-c3ncccn3)nc2CCN1c1cc(N2CC(F)(F)C2)cc(F)n1` (stereo not shown) [Example 126, 6-[4-(3,3-difluoroazetidin-1-yl)-6-fluoro-2-pyridyl]-5-methyl-2-pyrimidin-2-yl-7,8-dihydro-5H-pyrido[4,3-d]pyrimidine] it is 12 nM; for `CC(=O)N1CCN(c2cc(F)nc(N3CCc4nc(-c5ncccn5)ncc4C3C)c2)C(=O)C1` (stereo not shown) [Example 127, 4-Acetyl-1-[2-fluoro-6-(5-methyl-2-pyrimidin-2-yl-7,8-dihydro-5H-pyrido[4,3-d]pyrimidin-6-yl)-4-pyridyl]piperazin-2-one] it is 494 nM.
In the case of `CC1c2cnc(-c3ncccn3)nc2CCN1c1cc(N2CCN(S(C)(=O)=O)CC2=O)cc(F)n1` (stereo not shown) [Example 128, 1-[2-Fluoro-6-(5-methyl-2-pyrimidin-2-yl-7,8-dihydro-5H-pyrido[4,3-d]pyrimidin-6-yl)-4-pyridyl]-4-methylsulfonyl-piperazin-2-one], half-maximal inhibition (IC50) was put at 417 nM.
The same measure for `CC1c2cnc(-c3ncccn3)nc2CCN1c1cc(F)cc(N2CC3(COC3)C2)n1` (stereo not shown) [Example 129, 6-[4-fluoro-6-(5-methyl-2-pyrimidin-2-yl-7,8-dihydro-5H-pyrido[4,3-d]pyrimidin-6-yl)-2-pyridyl]-2-oxa-6-azaspiro[3.3]heptane]: 36 nM; for `CC1c2cnc(-c3ncccn3)nc2CCN1c1cc(N2CC3(COC3)C2)cc(F)n1` (stereo not shown) [Example 130, 6-[2-fluoro-6-(5-methyl-2-pyrimidin-2-yl-7,8-dihydro-5H-pyrido[4,3-d]pyrimidin-6-yl)-4-pyridyl]-2-oxa-6-azaspiro[3.3]heptane]: 12 nM; for `CC(=O)NC1CN(c2cc(F)cc(N3CCc4nc(-c5ncccn5)ncc4C3C)n2)C1` (stereo not shown) [Example 131, N-[1-[4-fluoro-6-(5-methyl-2-pyrimidin-2-yl-7,8-dihydro-5H-pyrido[4,3-d]pyrimidin-6-yl)-2-pyridyl]azetidin-3-yl]acetamide]: 43 nM.
The figure for `CC(=O)NC1CN(c2cc(F)nc(N3CCc4nc(-c5ncccn5)ncc4C3C)c2)C1` (stereo not shown) [Example 132, N-[1-[2-fluoro-6-(5-methyl-2-pyrimidin-2-yl-7,8-dihydro-5H-pyrido[4,3-d]pyrimidin-6-yl)-4-pyridyl]azetidin-3-yl]acetamide] is 24 nM; for `CC1CN(c2cc(F)cc(N3CCc4nc(-c5ncccn5)ncc4C3C)n2)CC(=O)N1` (stereo not shown) [Example 133, 4-[4-fluoro-6-(5-methyl-2-pyrimidin-2-yl-7,8-dihydro-5H-pyrido[4,3-d]pyrimidin-6-yl)-2-pyridyl]-6-methyl-piperazin-2-one] it is 9 nM.
In turn, `CC1CN(c2cc(F)nc(N3CCc4nc(-c5ncccn5)ncc4C3C)c2)CC(=O)N1` (stereo not shown) [Example 134, 4-[2-fluoro-6-(5-methyl-2-pyrimidin-2-yl-7,8-dihydro-5H-pyrido[4,3-d]pyrimidin-6-yl)-4-pyridyl]-6-methyl-piperazin-2-one] gave an IC50 of 15 nM.
The figure for `CC1c2cnc(-c3ncccn3)nc2CCN1c1cc(N2CC(CO)C2)cc(F)n1` (stereo not shown) [Example 135, [1-[2-fluoro-6-(5-methyl-2-pyrimidin-2-yl-7,8-dihydro-5H-pyrido[4,3-d]pyrimidin-6-yl)-4-pyridyl]azetidin-3-yl]methanol] is 8 nM.
For `CC1c2cnc(-c3ncccn3)nc2CCN1c1cc(F)cc(N2CC(CO)C2)n1` (stereo not shown) [Example 136, [1-[4-fluoro-6-(5-methyl-2-pyrimidin-2-yl-7,8-dihydro-5H-pyrido[4,3-d]pyrimidin-6-yl)-2-pyridyl]azetidin-3-yl]methanol], the concentration for half-maximal inhibition (IC50) turned out to be 23 nM.
Turning to `CC1c2cnc(-c3ncccn3)nc2CCN1c1cc(NCCCCC(N)=O)cc(F)n1` (stereo not shown) [Example 137, 5-[[2-Fluoro-6-(5-methyl-2-pyrimidin-2-yl-7,8-dihydro-5H-pyrido[4,3-d]pyrimidin-6-yl)-4-pyridyl]amino]pentanamide], half-maximal inhibition (IC50) was put at 120 nM.
The figure for `CC1c2cnc(-c3ncccn3)nc2CCN1c1cc(NC2CCS(=O)(=O)CC2)cc(F)n1` (stereo not shown) [Example 138, N-(1,1-dioxothian-4-yl)-2-fluoro-6-(5-methyl-2-pyrimidin-2-yl-7,8-dihydro-5H-pyrido[4,3-d]pyrimidin-6-yl)pyridin-4-amine] is 663 nM.
The figure for `CC(=O)N1CC(Nc2cc(F)cc(N3CCc4nc(-c5ncccn5)ncc4C3C)n2)C1` (stereo not shown) [Example 139, 1-[3-[[4-fluoro-6-(5-methyl-2-pyrimidin-2-yl-7,8-dihydro-5H-pyrido[4,3-d]pyrimidin-6-yl)-2-pyridyl]amino]azetidin-1-yl]ethanone] is 1550 nM; for `CC(=O)N1CC(Nc2cc(F)nc(N3CCc4nc(-c5ncccn5)ncc4C3C)c2)C1` (stereo not shown) [Example 140, 1-[3-[[2-fluoro-6-(5-methyl-2-pyrimidin-2-yl-7,8-dihydro-5H-pyrido[4,3-d]pyrimidin-6-yl)-4-pyridyl]amino]azetidin-1-yl]ethanone] it is 972 nM; for `CC1c2cnc(-c3ncccn3)nc2CCN1c1cc(N(C)CCCCC(N)=O)cc(F)n1` (stereo not shown) [Example 141, 5-[[2-fluoro-6-(5-methyl-2-pyrimidin-2-yl-7,8-dihydro-5H-pyrido[4,3-d]pyrimidin-6-yl)-4-pyridyl]-methyl-amino]pentanamide] it is 43 nM.
